The data set is described as follows: Comparison of stability: sealed storage at 40° C., HPLC purity. The format is physicochemical. The following applies: for degradation in stability test: sealed storage for 4 days at 40° C. From the text: The crystalline form A of Bimatoprost of the invention has specific stability, which is favorable for storage. The inventors compare the stability of the crystalline form A prepared by the method of the invention with that of the crystalline form B prepared in the prior art by stability test. […] Degradation products of the crystalline form B include a compound II and a compound III. […] As used herein, the term “HPLC purity” refers to the percentage of peak area of the compound as shown in formula I that is subject to HPLC detection and then area normalization according to the obtained chromatogram in the total peak area. The HPLC detection method is as follows: Chromatographic column: 4.6×150 mm 3 μm C18 column; column temperature: 35° C.; mobile phase: A: acetonitrile: water (20 mM potassium phosphate buffer solution; pH=2.8) 20:80; B: acetonitrile: water (20 mM potassium phosphate buffer solution; pH=2.8) 40:60; gradient elution conditions: A:B=100: 0, 1 min; A:B=100:0-40:60, 16 min; A:B=40:60, 4 min; A:B=40:60-100:0, 1 min. Flow rate: 1 ml/min; main peak retention time: around […]; sample volume 15 μl; column temperature: 35° C.±5° C.; detection wavelength: 210 nm; running time: 40 min. A sample of the crystal A of Bimatoprost prepared by Example 4 was taken (0.8 g; HPLC purity: 99.7%) and divided into 4 parts of equal amount; and the 4 parts were respectively hermetically placed under 40° C. for 1 day, 2 days, 3 days and 4 days and then sampled for analysis, wherein HPLC purity was 99.7%, 99.7%, 99.7% and 99.7% respectively. A sample of the crystal B of Bimatoprost prepared by Example 2 was taken (0.8 g; HPLC purity: 99.6%) and divided into 4 parts of equal amount; and the 4 parts were respectively hermetically placed under 40° C. for 1 day, 2 days, 3 days and 4 days and then sampled for analysis, wherein HPLC purity was 99.4%, 99.2%, 99.1% and 98.7% respectively.

The results in this text go back to patent US8664275B2, “Crystalline form of Bimatoprost, preparation method and use thereof” (Shanghai Techwell Biopharmaceutical Co., Ltd., priority 2009, dated 2014).

For the compound `CCNC(=O)CCC/C=C\C[C@@H]1[C@@H](/C=C/[C@@H](O)CCc2ccccc2)[C@H](O)C[C@@H]1O` [crystalline form A, (Z)-7-[(1R,2R,3R,5S)-3,5-dihydroxyl-2-[(E,3S)-3-hydroxyl-5-phenylpent-1-enyl]cyclopentyl]-N-ethylhept-5-eneamide], the “degradation in stability test” value was “does not degrade”. This compound displayed an HPLC purity (hermetically placed under 40° C. for 1 day, listed as crystal A of Bimatoprost) of 99.7%. In addition, the HPLC purity (hermetically placed under 40° C. for 2 days, listed as crystal A of Bimatoprost) is recorded as 99.7%. Where the note is “hermetically placed under 40° C. for 3 days, listed as crystal A of Bimatoprost”, the HPLC purity amounted to 99.7%. Where the note is “hermetically placed under 40° C. for 4 days, listed as crystal A of Bimatoprost”, this compound displayed an HPLC purity of 99.7%. Further, the HPLC purity (sample before storage (initial), listed as crystal A of Bimatoprost) was determined as 99.7%.

With `CCNC(=O)CCC/C=C\C[C@@H]1[C@@H](/C=C/[C@@H](O)CCc2ccccc2)[C@H](O)C[C@@H]1O` [crystalline form B, (Z)-7-[(1R,2R,3R,5S)-3,5-dihydroxyl-2-[(E,3S)-3-hydroxyl-5-phenylpent-1-enyl]cyclopentyl]-N-ethylhept-5-eneamide], the “degradation in stability test” value is recorded as “obviously degrades”. Under “hermetically placed under 40° C. for 1 day, listed as crystal B of Bimatoprost”, this compound had an HPLC purity of 99.4%. The compound further gave an HPLC purity (hermetically placed under 40° C. for 2 days, listed as crystal B of Bimatoprost) of 99.2%. Where the note is “hermetically placed under 40° C. for 3 days, listed as crystal B of Bimatoprost”, this compound came in with an HPLC purity of 99.1%. Under “hermetically placed under 40° C. for 4 days, listed as crystal B of Bimatoprost”, this compound showed an HPLC purity of 98.7%. Further, the HPLC purity (sample before storage (initial), listed as crystal B of Bimatoprost) amounted to 99.6%.
